Patent US9296734B2 (AMGEN INC., priority 2013, dated 2016)
Like-named read-outs stand apart in the source and are kept apart here.

Target: Cathepsin D (Cat D) (Homo sapiens (Human), UniProt P07339)
Assay: In vitro enzymatic Cathepsin D (Cat D) FRET assay
Type: biochemical
Settings: read-out: CatD IC50
Description: In Vitro Enzymatic Cathepsin D (Cat D) FRET (Fluorescence Resonance Energy Transfer) Assay
Recombinant Cat D was expressed in CHO cells. The assay buffer for CathepsinD is 0.05 M citrate pH 3.5, 10% DMSO final, 5 mM CHAPS. […] The assays are effectively started by the addition of different FRET substrates (20 nM for Cat D) and the combination is incubated for one hour. The FRET assay is terminated with by addition of Tris buffer, which raises the pH to neutrality, and the fluorescence is determined. The FRET substrate is a peptide with commercially available fluorophore and quencher, on opposite sides of the BACE cleavage site. […] Proteolytic cleavage of the FRET substrate releases quenching of fluorescence (Cat D excitation 500 nm and emission 580 nm).
In addition, the cathepsin D and cathepsin E assays are described in PCT publication WO2011069934.

[1] = average IC50, cathepsin D enzyme assay

Chain of Cathepsin D (Cat D) (P07339 65-412, species assumed): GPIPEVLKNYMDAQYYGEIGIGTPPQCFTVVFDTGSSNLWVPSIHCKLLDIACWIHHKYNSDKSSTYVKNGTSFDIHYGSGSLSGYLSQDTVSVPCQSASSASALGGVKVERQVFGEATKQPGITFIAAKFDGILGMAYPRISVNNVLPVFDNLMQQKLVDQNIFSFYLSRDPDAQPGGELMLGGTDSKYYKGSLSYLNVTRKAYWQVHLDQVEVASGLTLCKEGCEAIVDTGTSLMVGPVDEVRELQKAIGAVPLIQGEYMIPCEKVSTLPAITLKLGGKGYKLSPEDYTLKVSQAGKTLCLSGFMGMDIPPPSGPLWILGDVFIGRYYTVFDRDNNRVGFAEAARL

Row | SMILES | IC50 [1] | IC50 (average) | further results
1 | COc1cnc2c(Nc3cc(F)c(F)c([C@]4(C)C[C@@H](C(F)(F)F)OC(N)=N4)c3)nccc2n1 [Example 178, (4S,6S)-4-(2,3-difluoro-5-((2-methoxypyrido[3,4-b]pyrazin-5-yl)amino)phenyl)-4-methyl-6-(trifluoromethyl)-5,6-dihydro-4H-1,3-oxazin-2-amine] | 519 µM | – | –
2 | N#Cc1cncc(-c2ccc(F)c([C@]3(CF)C[C@@H](C(F)(F)F)OC(N)=N3)c2)c1 [Example 103, 5-(3-((4S,6S)-2-amino-4-(fluoromethyl)-6-(trifluoromethyl)-5,6-dihydro-4H-1,3-oxazin-4-yl)-4-fluorophenyl)nicotinonitrile] | – | – | IC50 (average IC50): 129 µM
3 | COc1cnc2c(Nc3cc(F)c(F)c([C@]4(C)C[C@@H](C(F)(F)F)OC(N)=N4)c3)nccc2c1 [Example 179] | > 400 µM | – | –
4 | C[C@@]1(c2cc(NC(=O)c3ccc(Cl)cn3)cc(Cl)c2F)C[C@@H](C(F)(F)F)OC(N)=N1 [Example 207, N-(3-((4S,6S)-2-amino-4-methyl-6-(trifluoromethyl)-5,6-dihydro-4H-1,3-oxazin-4-yl)-5-chloro-4-fluorophenyl)-5-chloropicolinamide] | – | 386 µM | –
5 | C[C@@]1(c2cc(NC(=O)N3CC=C(C#CC4CC4)CC3)ccc2F)C[C@@H](C(F)(F)F)OC(N)=N1 [Example 124, N-(3-((4S,6S)-2-amino-4-methyl-6-(trifluoromethyl)-5,6-dihydro-4H-1,3-oxazin-4-yl)-4-fluorophenyl)-4-(cyclopropylethynyl)-5,6-dihydropyridine-1(2H)-carboxamide] | 810 µM | – | –
6 | Cc1cc(OCC(F)(F)F)cnc1C(=O)Nc1cc(F)c(F)c([C@]2(C)C[C@@H](C(F)(F)F)OC(N)=N2)c1 [Example 194, N-(3-((4S,6S)-2-amino-4-methyl-6-(trifluoromethyl)-5,6-dihydro-4H-1,3-oxazin-4-yl)-4,5-difluorophenyl)-3-methyl-5-(2,2,2-trifluoroethoxy)picolinamide] | – | > 400 µM | –
7 | Cc1nc(OCC(F)(F)F)cnc1C(=O)Nc1cc(F)c(F)c([C@]2(C)C[C@@H](C(F)(F)F)OC(N)=N2)c1 [Example 197, N-(3-((4S,6S)-2-amino-4-methyl-6-(trifluoromethyl)-5,6-dihydro-4H-1,3-oxazin-4-yl)-4,5-difluorophenyl)-3-methyl-5-(2,2,2-trifluoroethoxy)pyrazine-2-carboxamide] | – | > 400 µM | –
8 | COc1cnc2c(Nc3ccc(F)c([C@]4(CF)C[C@@H](C(F)(F)F)OC(N)=N4)c3)ncnc2c1 [Example 13, (4S,6S)-4-(2-fluoro-5-((7-methoxypyrido[3,2-d]pyrimidin-4-yl)amino)phenyl)-4-(fluoromethyl)-6-(trifluoromethyl)-5,6-dihydro-4H-1,3-oxazin-2-amine] | – | – | IC50 (average IC50): > 400 µM
9 | C[C@@]1(c2cc(NC(=O)c3ccc(C#N)cn3)cnc2F)C[C@@H](C(F)(F)F)OC(N)=N1 [Example 62, N-(5-((4S,6S)-2-amino-4-methyl-6-(trifluoromethyl)-5,6-dihydro-4H-1,3-oxazin-4-yl)-6-fluoropyridin-3-yl)-5-cyanopicolinamide] | – | – | IC50 (average IC50): > 400 µM
10 | N#Cc1cnc2c(Nc3cc(F)c(F)c([C@]4(CF)C[C@@H](C(F)(F)F)OC(N)=N4)c3)nccc2c1 [Example 162, 8-((3-((4S,6S)-2-amino-4-(fluoromethyl)-6-(trifluoromethyl)-5,6-dihydro-4H-1,3-oxazin-4-yl)-4,5-difluorophenyl)amino)-1,7-naphthyridine-3-carbonitrile] | > 400 µM | – | –
11 | N#Cc1ccc(C(=O)Nc2ccc(F)c([C@]3(CF)C[C@@H](C(F)(F)F)OC(N)=N3)c2)nc1 [Example 59, N-(3-((4S,6S)-2-amino-4-(fluoromethyl)-6-(trifluoromethyl)-5,6-dihydro-4H-1,3-oxazin-4-yl)-4-fluorophenyl)-5-cyanopicolinamide] | – | – | IC50 (average IC50): > 400 µM
12 | COc1cnc(C(=O)Nc2cc(Cl)c(F)c([C@]3(C)C[C@@H](C(F)(F)F)OC(N)=N3)c2)c(C)n1 [Example 215, N-(3-((4S,6S)-2-amino-4-methyl-6-(trifluoromethyl)-5,6-dihydro-4H-1,3-oxazin-4-yl)-5-chloro-4-fluorophenyl)-5-methoxy-3-methylpyrazine-2-carboxamide] | – | > 400 µM | –
13 | C[C@@]1(c2cc(Nc3ncc(F)c4cc(C#N)cnc34)cnc2F)C[C@@H](C(F)(F)F)OC(N)=N1 [Example 78, 8-((5-((4S,6S)-2-amino-4-methyl-6-(trifluoromethyl)-5,6-dihydro-4H-1,3-oxazin-4-yl)-6-fluoropyridin-3-yl)amino)-5-fluoro-1,7-naphthyridine-3-carbonitrile] | – | – | IC50 (average IC50): > 400 µM
14 | Cc1cc(C#N)cnc1C(=O)Nc1ccc(F)c([C@]2(C)C[C@@H](C(F)(F)F)OC(N)=N2)n1 [Example 84, N-(6-((4S,6S)-2-amino-4-methyl-6-(trifluoromethyl)-5,6-dihydro-4H-1,3-oxazin-4-yl)-5-fluoropyridin-2-yl)-5-cyano-3-methylpicolinamide] | – | – | IC50 (average IC50): 900 µM
15 | CC#CCOc1cnc(C(=O)Nc2cc(F)c(F)c([C@]3(C)C[C@@H](C(F)(F)F)OC(N)=N3)c2)c(C)c1 [Example 188, N-(3-((4S,6S)-2-amino-4-methyl-6-(trifluoromethyl)-5,6-dihydro-4H-1,3-oxazin-4-yl)-4,5-difluorophenyl)-5-(but-2-yn-1-yloxy)-3-methylpicolinamide] | – | 286 µM | –
16 | NC1=N[C@](CF)(c2cc(Nc3ncnc4sc(C(F)F)nc34)ccc2F)C[C@@H](C(F)(F)F)O1 [Example 21, (4S,6S)-4-(5-((2-(difluoromethyl)thiazolo[5,4-d]pyrimidin-7-yl)amino)-2-fluorophenyl)-4-(fluoromethyl)-6-(trifluoromethyl)-5,6-dihydro-4H-1,3-oxazin-2-amine] | > 400 µM | – | –
17 | C[C@@]1(c2cc(NC(=O)c3ncc(C(F)F)cc3Cl)cc(F)c2F)C[C@@H](C(F)(F)F)OC(N)=N1 [Example 198, N-(3-((4S,6S)-2-amino-4-methyl-6-(trifluoromethyl)-5,6-dihydro-4H-1,3-oxazin-4-yl)-4,5-difluorophenyl)-3-chloro-5-(difluoromethyl)picolinamide] | – | > 400 µM | –

More lines, main results first:

Row | IC50 [1] | IC50 (average) | SMILES | further results
18 | 1080 µM | – | COc1cccnc1Nc1ccc(F)c([C@]2(CF)C[C@@H](C(F)(F)F)OC(N)=N2)c1 [Example 15, (4S,6S)-4-(2-fluoro-5-((3-methoxypyridin-2-yl)-amino)phenyl)-4-(fluoromethyl)-6-(trifluoromethyl)-5,6-dihydro-4H-1,3-oxazin-2-amine] | –
19 | > 400 µM | – | C#CCOc1cnc(C(=O)Nc2ccc(F)c([C@]3(CF)C[C@@H](C(F)(F)F)OC(N)=N3)c2)cn1 [Example 35, N-(3-((4S,6S)-2-amino-4-(fluoromethyl)-6-(trifluoromethyl)-5,6-dihydro-4H-1,3-oxazin-4-yl)-4-fluorophenyl)-5-(prop-2-yn-1-yloxy)pyrazine-2-carboxamide] | –
20 | > 400 µM | – | NC1=N[C@](CF)(c2cc(NC(=O)c3cnc(OCc4ncco4)cn3)ccc2F)C[C@@H](C(F)(F)F)O1 [Example 46, N-(3-((4S,6S)-2-amino-4-(fluoromethyl)-6-(trifluoromethyl)-5,6-dihydro-4H-1,3-oxazin-4-yl)-4-fluorophenyl)-5-(oxazol-2-ylmethoxy)pyrazine-2-carboxamide] | –
21 | – | 1120 µM | COc1ccc(C(=O)Nc2cc(C)c(F)c([C@]3(CF)C[C@@H](C(F)(F)F)OC(N)=N3)c2)nc1 [Example 229, N-(3-((4S,6S)-2-amino-4-(fluoromethyl)-6-(trifluoromethyl)-5,6-dihydro-4H-1,3-oxazin-4-yl)-4-fluoro-5-methylphenyl)-5-methoxypicolinamide] | –
22 | 397 µM | – | COc1cnc(C(=O)Nc2cnc(F)c([C@]3(C)C[C@@H](C(F)(F)F)OC(N)=N3)c2)cn1 [Example 70, N-(5-((4S,6S)-2-amino-4-methyl-6-(trifluoromethyl)-5,6-dihydro-4H-1,3-oxazin-4-yl)-6-fluoropyridin-3-yl)-5-methoxypyrazine-2-carboxamide] | –
23 | 2380 µM | – | NC1=N[C@](CF)(c2cc(NC(=O)c3nn(C(F)F)cc3Cl)ccc2F)C[C@@H](C(F)(F)F)O1 [Example 36, N-(3-((4S,6S)-2-amino-4-(fluoromethyl)-6-(trifluoromethyl)-5,6-dihydro-4H-1,3-oxazin-4-yl)-4-fluorophenyl)-4-chloro-1-(difluoromethyl)-1H-pyrazole-3-carboxamide] | –
24 | – | 2570 µM | C#CCOc1cnc(C(=O)Nc2ccc(F)c([C@]3(C)C[C@@H](C(F)(F)F)OC(N)=N3)c2)cn1 [Example 45, N-(3-((4S,6S)-2-amino-4-methyl-6-(trifluoromethyl)-5,6-dihydro-4H-1,3-oxazin-4-yl)-4-fluorophenyl)-5-(prop-2-yn-1-yloxy)pyrazine-2-carboxamide] | –
25 | > 400 µM | – | COc1ccc(C(=O)Nc2cnc(F)c([C@]3(C)C[C@@H](C(F)(F)F)OC(N)=N3)c2)nc1 [Example 63, N-(5-((4S,6S)-2-amino-4-methyl-6-(trifluoromethyl)-5,6-dihydro-4H-1,3-oxazin-4-yl)-6-fluoropyridin-3-yl)-5-methoxypicolinamide] | –
26 | – | > 400 µM | NC1=N[C@](CF)(c2cc(NC(=O)c3ncc(Cl)cc3F)cc(F)c2F)C[C@@H](C(F)(F)F)O1 [Example 233, N-(3-((4S,6S)-2-amino-4-(fluoromethyl)-6-(trifluoromethyl)-5,6-dihydro-4H-1,3-oxazin-4-yl)-4,5-difluorophenyl)-5-chloro-3-fluoropicolinamide] | –
27 | > 133 µM | – | NC1=N[C@](CF)(c2cc(Nc3ncc(F)c4cc(Cl)cnc34)ccc2F)C[C@@H](C(F)(F)F)O1 [Example 19, (4S,6S)-4-(5-((3-chloro-5-fluoro-1,7-naphthyridin-8-yl)amino)-2-fluorophenyl)-4-(fluoromethyl)-6-(trifluoromethyl)-5,6-dihydro-4H-1,3-oxazin-2-amine] | –
